By IC50 is commonly meant the concentration that inhibits the measured activity by half. A high value points to a need for much substance.

These results are taken from patent US10287295B2, “TGF-β inhibitors” (Rigel Pharmaceuticals, Inc., priority 2015, dated 2019).

For experiment [1], the system named is GDF8 signaling (GDF pSMAD, MPC11). In words: AlphaScreen SureFire SMAD3 (p-Ser423/425) assay, inhibition of GDF8 signaling. Type of experiment: cell-based. The following applies: Mus musculus, MPC-11, inhibition of GDF8 signaling, p-SMAD3 readout. On the technique in general: In Alpha technology, singlet oxygen from a donor bead excites a nearby acceptor bead.

In experiment [2] the test system is TGF-β signaling (TGF-β pSMAD, MPC-11). The experiment is described as follows: AlphaScreen SureFire SMAD3 (p-Ser423/425) assay, inhibition of TGF-β signaling. Type of experiment: cell-based. As to conditions: Mus musculus, MPC-11, inhibition of TGF-β signaling, p-SMAD3 readout.

Each structure is given as a SMILES string.

On to `Cc1nc(-c2ccc(F)c(C)c2)c(-c2ccc3ncsc3c2)[nH]1` [Compound 73, 6-(4-(4-Fluoro-3-methylphenyl)-2-methyl-1H-imidazol-5-yl)benzo[d]thiazole], for which the IC50 in experiment [1] turned out to be 100 nM; in experiment [2] it was 950 nM.
As to `Cc1nc(-c2ccc(F)c(C)c2)c(-c2ccc3nccn3c2)[nH]1` [Compound 74, 6-(4-(4-Fluoro-3-methylphenyl)-2-methyl-1H-imidazol-5-yl)imidazo[1,2-a]pyridine], the half-maximal inhibitory concentration (IC50) came to 200 nM in experiment [1] and 1410 nM in experiment [2].
For the compound `Cc1nc(-c2ccc(F)c(C)c2)c(-c2ccc3ncccc3c2)[nH]1` [Compound 75, 6-(4-(4-Fluoro-3-methylphenyl)-2-methyl-1H-imidazol-5-yl)quinoline], the values for the IC50 in experiment [1] and in experiment [2] were 510 nM and 4390 nM, respectively.
On to `Cc1nc(-c2ccc(F)c(C)c2)c(-c2ccc3nccnc3c2)[nH]1` [Compound 76, 6-(4-(4-Fluoro-3-methylphenyl)-2-methyl-1H-imidazol-5-yl)quinoxaline], for which the IC50 is 190 nM in experiment [1] and 1210 nM in experiment [2].
With `Cc1nc(-c2ccc(F)cc2)c(-c2ccc3[nH]ncc3c2)[nH]1` [Compound 77, 5-(4-(4-Fluorophenyl)-2-methyl-1H-imidazol-5-yl)-1H-indazole], the IC50 in experiment [1] was 220 nM; in experiment [2], 1430 nM.
Regarding `Cc1nc(-c2ccc(F)cc2)c(-c2ccc3cn[nH]c3c2)[nH]1` [Compound 78, 6-(4-(4-Fluorophenyl)-2-methyl-1H-imidazol-5-yl)-1H-indazole], the figures for the IC50 in experiment [1] and in experiment [2] were 290 nM and 2470 nM, respectively.
For `Cc1nc(-c2ccc(F)cc2)c(-c2ccc3ncn(C)c3c2)[nH]1` [Compound 79, 6-(4-(4-Fluorophenyl)-2-methyl-1H-imidazol-5-yl)-1-methyl-1H-benzo[d]imidazole] the same measures were 110 nM and 850 nM.
For the compound `Cc1nc(-c2ccc(F)cc2)c(-c2ccc3ncsc3c2)[nH]1` [Compound 80, 6-(4-(4-Fluorophenyl)-2-methyl-1H-imidazol-5-yl)benzo[d]thiazole], the IC50 in experiment [1] amounted to 220 nM; in experiment [2] it was 1630 nM.
Turning to `Cc1nc(-c2ccc(F)cc2)c(-c2ccc3nccn3c2)[nH]1` [Compound 81, 6-(4-(4-Fluorophenyl)-2-methyl-1H-imidazol-5-yl)imidazo[1,2-a]pyridine], the results for the IC50 in experiment [1] and in experiment [2] were 390 nM and 2620 nM, respectively.
On the same counts, the results for `Cc1nc(-c2ccc(F)cc2)c(-c2ccc3nccnc3c2)[nH]1` [Compound 82, 6-(4-(4-Fluorophenyl)-2-methyl-1H-imidazol-5-yl)quinoxaline] are 480 nM and 3270 nM.
For `Cc1nc(-c2ccc(F)c(F)c2)c(-c2ccc3[nH]ncc3c2)[nH]1` [Compound 83, 5-(4-(3,4-Difluorophenyl)-2-methyl-1H-imidazol-5-yl)-1H-indazole] the same measures were 130 nM and 1330 nM.
In the case of `Cc1nc(-c2ccc(F)c(F)c2)c(-c2ccc3cn[nH]c3c2)[nH]1` [Compound 84, 6-(4-(3,4-Difluorophenyl)-2-methyl-1H-imidazol-5-yl)-1H-indazole], the IC50 in experiment [1] is 320 nM; in experiment [2], 2900 nM.
For `Cc1nc(-c2ccc(F)c(F)c2)c(-c2ccc3ncn(C)c3c2)[nH]1` [Compound 85, 6-(4-(3,4-Difluorophenyl)-2-methyl-1H-imidazol-5-yl)-1-methyl-1H-benzo[d]imidazole] the same measures were 180 nM and 670 nM.
In the case of `Cc1nc(-c2ccc(F)c(F)c2)c(-c2ccc3ncsc3c2)[nH]1` [Compound 86, 6-(4-(3,4-Difluorophenyl)-2-methyl-1H-imidazol-5-yl)benzo[d]thiazole], the values for the IC50 in experiment [1] and in experiment [2] were 220 nM and 1280 nM, respectively.
Regarding `Cc1nc(-c2ccc(F)c(F)c2)c(-c2ccc3nccn3c2)[nH]1` [Compound 87, 6-(4-(3,4-Difluorophenyl)-2-methyl-1H-imidazol-5-yl)imidazo[1,2-a]pyridine], the IC50 in experiment [1] amounted to 330 nM; in experiment [2], 3460 nM.
On the same counts, the results for `Cc1nc(-c2ccc(F)c(F)c2)c(-c2ccc3ncccc3c2)[nH]1` [Compound 88, 6-(4-(3,4-Difluorophenyl)-2-methyl-1H-imidazol-5-yl)quinoline] are 1020 nM and 11500 nM.
In the case of `Cc1nc(-c2ccc(F)c(F)c2)c(-c2ccc3nccnc3c2)[nH]1` [Compound 89, 6-(4-(3,4-Difluorophenyl)-2-methyl-1H-imidazol-5-yl)quinoxaline], the results for the IC50 in experiment [1] and in experiment [2] were 430 nM and 4190 nM, respectively.
On the same counts, the results for `Cc1nc(-c2cc(F)c(F)c(F)c2)c(-c2ccc3[nH]ncc3c2)[nH]1` [Compound 90, 5-(2-Methyl-4-(3,4,5-trifluorophenyl)-1H-imidazol-5-yl)-1H-indazole] are 630 nM and 3560 nM.
For `Cc1nc(-c2cc(F)c(F)c(F)c2)c(-c2ccc3cn[nH]c3c2)[nH]1` [Compound 91, 6-(2-Methyl-4-(3,4,5-trifluorophenyl)-1H-imidazol-5-yl)-1H-indazole] the same measures were 390 nM and 2230 nM.
For `Cc1nc(-c2cc(F)c(F)c(F)c2)c(-c2ccc3ncnn3c2)[nH]1` [Compound 92, 6-(2-Methyl-4-(3,4,5-trifluorophenyl)-1H-imidazol-5-yl)-[1,2,4]triazolo[1,5-a]pyridine] the same measures were 470 nM and 2270 nM.
As for `Cc1nc(-c2cc(F)c(F)c(F)c2)c(-c2ccc3ncsc3c2)[nH]1` [Compound 93, 6-(2-Methyl-4-(3,4,5-trifluorophenyl)-1H-imidazol-5-yl)benzo[d]thiazole], the IC50 was found to be 300 nM in experiment [1] and 2340 nM in experiment [2].
On the same counts, the results for `Cc1nc(-c2cc(F)c(F)c(F)c2)c(-c2ccc3nccn3c2)[nH]1` [Compound 94, 6-(2-Methyl-4-(3,4,5-trifluorophenyl)-1H-imidazol-5-yl)imidazo[1,2-a]pyridine] are 580 nM and 2910 nM.
For `Cc1nc(-c2cc(F)c(F)c(F)c2)c(-c2ccc3ncccc3c2)[nH]1` [Compound 95, 6-(2-Methyl-4-(3,4,5-trifluorophenyl)-1H-imidazol-5-yl)quinoline] the same measures were 300 nM and 1880 nM.
On the same counts, the results for `Cc1nc(-c2cc(F)c(F)c(F)c2)c(-c2ccc3nccnc3c2)[nH]1` [Compound 96, 6-(2-Methyl-4-(3,4,5-trifluorophenyl)-1H-imidazol-5-yl)quinoxaline] are 440 nM and 2430 nM.
Take `Cc1nc(-c2cc(F)c(F)cc2F)c(-c2ccc3[nH]ncc3c2)[nH]1` [Compound 97, 5-(2-Methyl-4-(2,4,5-trifluorophenyl)-1H-imidazol-5-yl)-1H-indazole]: the IC50 in experiment [1] came to 100 nM; in experiment [2], 540 nM.
In the case of `Cc1nc(-c2cc(F)c(F)cc2F)c(-c2ccc3ncnn3c2)[nH]1` [Compound 98, 6-(2-Methyl-4-(2,4,5-trifluorophenyl)-1H-imidazol-5-yl)-[1,2,4]triazolo[1,5-a]pyridine], the IC50 came out at 50 nM in experiment [1] and 190 nM in experiment [2].
For the compound `Cc1nc(-c2cc(F)c(F)cc2F)c(-c2ccc3ncsc3c2)[nH]1` [Compound 99, 6-(2-Methyl-4-(2,4,5-trifluorophenyl)-1H-imidazol-5-yl)benzo[d]thiazole], the values for the 50% inhibitory concentration (IC50) in experiment [1] and in experiment [2] were 40 nM and 240 nM, respectively.
For `Cc1nc(-c2cc(F)c(F)cc2F)c(-c2ccc3ncccc3c2)[nH]1` [Compound 100, 6-(2-Methyl-4-(2,4,5-trifluorophenyl)-1H-imidazol-5-yl)quinoline] the same measures were 170 nM and 1370 nM.
For `Cc1nc(-c2cccc(Cl)c2)c(-c2ccc3[nH]ncc3c2)[nH]1` [Compound 101, 5-(4-(3-Chlorophenyl)-2-methyl-1H-imidazol-5-yl)-1H-indazole], the IC50 was found to be 140 nM in experiment [1] and 500 nM in experiment [2].
For `Cc1nc(-c2cccc(Cl)c2)c(-c2ccc3ncnn3c2)[nH]1` [Compound 103, 6-(4-(3-Chlorophenyl)-2-methyl-1H-imidazol-5-yl)-[1,2,4]triazolo[1,5-a]pyridine] the same measures were 130 nM and 690 nM.
For `Cc1nc(-c2cccc(Cl)c2)c(-c2ccc3nccn3c2)[nH]1` [Compound 104, 6-(4-(3-Chlorophenyl)-2-methyl-1H-imidazol-5-yl)imidazo[1,2-a]pyridine] the same measures were 80 nM and 510 nM.
For `CCc1nc(-c2ccc(F)c(C)c2)c(-c2ccc3[nH]ncc3c2)[nH]1` [Compound 106, 5-(2-Ethyl-4-(4-fluoro-3-methylphenyl)-1H-imidazol-5-yl)-1H-indazole] the same measures were 150 nM and 920 nM.
As for `CCc1nc(-c2ccc(F)c(C)c2)c(-c2ccc3cn[nH]c3c2)[nH]1` [Compound 107, 6-(2-Ethyl-4-(4-fluoro-3-methylphenyl)-1H-imidazol-5-yl)-1H-indazole], the IC50 came out at 340 nM in experiment [1] and 1850 nM in experiment [2].
For `CCc1nc(-c2ccc(F)c(C)c2)c(-c2ccc3ncnn3c2)[nH]1` [Compound 108, 6-(2-Ethyl-4-(4-fluoro-3-methylphenyl)-1H-imidazol-5-yl)-[1,2,4]triazolo[1,5-a]pyridine] the same measures were 80 nM and 400 nM.
For the compound `CCc1nc(-c2ccc(F)c(C)c2)c(-c2ccc3ncsc3c2)[nH]1` [Compound 109, 6-(2-Ethyl-4-(4-fluoro-3-methylphenyl)-1H-imidazol-5-yl)benzo[d]thiazole], the IC50 in experiment [1] stood at 150 nM; in experiment [2], 870 nM.
On the same counts, the results for `CCc1nc(-c2ccc(F)c(C)c2)c(-c2ccc3nccn3c2)[nH]1` [Compound 110, 6-(2-Ethyl-4-(4-fluoro-3-methylphenyl)-1H-imidazol-5-yl)imidazo[1,2-a]pyridine] are 250 nM and 1050 nM.
